For five compounds, IC50 results are on record in patent US20180353462A1, “[…] AGENTS […] FLAVONOID DERIVATIVES TARGETING KINASES, SIRTUINS AND ONCOGENIC AGENTS FOR THE TREATMENT OF CANCERS” (priority 2015, published 2018).

Bounds are passed on as bounds.

Experiment [1] concerns the target T1, c-Kit(Y823D) (Homo sapiens, UniProt P10721, Y823D).
T1 construct: made in house
The experiment is described as follows: Kinase competition binding assay, c-Kit(Y823D). The conditions noted are these: Table 1 kinase panel. The method, then: (§1) Cannabis flavonoids and their analogs were subjected to kinase inhibition assay. The compounds were first screened at a single concentration of 10 μM in the primary assay. […]. To determine the kd or IC50 values, competition binding assays were established, authenticated and executed as described previously. Fabian et al., “A Small Molecule-Kinase Interaction Map For Clinical Kinase Inhibitors.”, Nat Biotechnol, 23(3):329-36, Epub (2005). See also, Karaman et al., “A Quantitative Analysis Of Kinase Inhibitor Selectivity”, Nat. Biotechnol. […] For most assays, kinases were fused to T7 phage strains (Fabian, supra) and for the other assays, kinases were produced in HEK-293 cells after which they were tagged with DNA for quantitative PCR detection. In general, full-length constructs were used for small, single domain kinases, and catalytic domain constructs for large multi-domain kinases. The binding assays utilized streptavidin-coated magnetic beads treated with biotinylated small molecule ligands for 30 minutes at room temperature which generated affinity resins for the kinase assays. The liganded beads were blocked with excess biotin and washed with blocking buffer (SeaBlock (Pierce), 1% BSA, 0.05% Tween 20, 1 mM DTT) to remove unbound ligand and to reduce non-specific phage binding. […] Test compounds were prepared as 40× stocks in 100% DMSO and diluted directly into the assay (Final DMSO concentration=2.5%). All reactions were performed in polypropylene 384-well plates in a final volume of 0.04 ml. […] The beads were then re-suspended in elution buffer (1×PBS, 0.05% Tween 20, 0.5 μM non-biotinylated affinity ligand) and incubated at room temperature with shaking for 30 minutes. The kinase concentration in the eluates was measured by quantitative PCR. An illustration of the kinase interaction process is presented below. Kd/IC50 values were determined using a standard dose response curve using the hill equation. Curves were fitted using a non-linear least square fit with the Levenberg-Marquardt algorithm.
(§2) The compound(s) were screened at 10 μM and results for primary screen binding interactions are reported as ‘% Ctrl’, where lower numbers indicate stronger hits in the matrix.

The target in experiment [2] is T2, FMS/CSF1R (Homo sapiens, UniProt P07333).
T2 construct: made in house
T2 sequence (P07333 20-972): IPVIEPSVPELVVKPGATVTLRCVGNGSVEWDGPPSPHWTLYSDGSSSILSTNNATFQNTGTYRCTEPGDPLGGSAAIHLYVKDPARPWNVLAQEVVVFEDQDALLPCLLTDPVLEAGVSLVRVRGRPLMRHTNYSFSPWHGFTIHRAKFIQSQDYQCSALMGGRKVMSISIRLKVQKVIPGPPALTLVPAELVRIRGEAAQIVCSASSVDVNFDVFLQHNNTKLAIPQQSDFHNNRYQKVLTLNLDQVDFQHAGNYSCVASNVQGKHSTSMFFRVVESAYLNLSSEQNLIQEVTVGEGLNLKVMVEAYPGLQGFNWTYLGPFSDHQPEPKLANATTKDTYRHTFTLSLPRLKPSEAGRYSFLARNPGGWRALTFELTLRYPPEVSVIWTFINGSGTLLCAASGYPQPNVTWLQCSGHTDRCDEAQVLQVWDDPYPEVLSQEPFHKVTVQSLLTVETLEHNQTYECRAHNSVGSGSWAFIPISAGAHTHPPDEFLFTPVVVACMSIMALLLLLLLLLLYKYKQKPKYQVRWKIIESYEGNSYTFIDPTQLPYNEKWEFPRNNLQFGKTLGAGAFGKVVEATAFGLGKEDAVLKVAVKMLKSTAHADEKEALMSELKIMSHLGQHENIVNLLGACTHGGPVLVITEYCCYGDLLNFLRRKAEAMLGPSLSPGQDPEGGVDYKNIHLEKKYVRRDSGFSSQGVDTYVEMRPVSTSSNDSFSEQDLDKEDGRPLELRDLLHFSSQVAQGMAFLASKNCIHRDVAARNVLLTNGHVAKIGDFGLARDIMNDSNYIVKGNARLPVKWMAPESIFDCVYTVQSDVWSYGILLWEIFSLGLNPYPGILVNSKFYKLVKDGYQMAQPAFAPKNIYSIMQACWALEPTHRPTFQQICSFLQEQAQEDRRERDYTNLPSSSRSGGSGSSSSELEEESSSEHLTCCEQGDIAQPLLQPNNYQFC
Briefly: Kinase competition binding assay, FMS/CSF1R. To be noted: Table 1 kinase panel. The method, then:
as §1, §2

Experiment [3] concerns the target T3, JAK3 (Homo sapiens, UniProt P52333).
T3 construct: made in house
T3 sequence (P52333 1-1124): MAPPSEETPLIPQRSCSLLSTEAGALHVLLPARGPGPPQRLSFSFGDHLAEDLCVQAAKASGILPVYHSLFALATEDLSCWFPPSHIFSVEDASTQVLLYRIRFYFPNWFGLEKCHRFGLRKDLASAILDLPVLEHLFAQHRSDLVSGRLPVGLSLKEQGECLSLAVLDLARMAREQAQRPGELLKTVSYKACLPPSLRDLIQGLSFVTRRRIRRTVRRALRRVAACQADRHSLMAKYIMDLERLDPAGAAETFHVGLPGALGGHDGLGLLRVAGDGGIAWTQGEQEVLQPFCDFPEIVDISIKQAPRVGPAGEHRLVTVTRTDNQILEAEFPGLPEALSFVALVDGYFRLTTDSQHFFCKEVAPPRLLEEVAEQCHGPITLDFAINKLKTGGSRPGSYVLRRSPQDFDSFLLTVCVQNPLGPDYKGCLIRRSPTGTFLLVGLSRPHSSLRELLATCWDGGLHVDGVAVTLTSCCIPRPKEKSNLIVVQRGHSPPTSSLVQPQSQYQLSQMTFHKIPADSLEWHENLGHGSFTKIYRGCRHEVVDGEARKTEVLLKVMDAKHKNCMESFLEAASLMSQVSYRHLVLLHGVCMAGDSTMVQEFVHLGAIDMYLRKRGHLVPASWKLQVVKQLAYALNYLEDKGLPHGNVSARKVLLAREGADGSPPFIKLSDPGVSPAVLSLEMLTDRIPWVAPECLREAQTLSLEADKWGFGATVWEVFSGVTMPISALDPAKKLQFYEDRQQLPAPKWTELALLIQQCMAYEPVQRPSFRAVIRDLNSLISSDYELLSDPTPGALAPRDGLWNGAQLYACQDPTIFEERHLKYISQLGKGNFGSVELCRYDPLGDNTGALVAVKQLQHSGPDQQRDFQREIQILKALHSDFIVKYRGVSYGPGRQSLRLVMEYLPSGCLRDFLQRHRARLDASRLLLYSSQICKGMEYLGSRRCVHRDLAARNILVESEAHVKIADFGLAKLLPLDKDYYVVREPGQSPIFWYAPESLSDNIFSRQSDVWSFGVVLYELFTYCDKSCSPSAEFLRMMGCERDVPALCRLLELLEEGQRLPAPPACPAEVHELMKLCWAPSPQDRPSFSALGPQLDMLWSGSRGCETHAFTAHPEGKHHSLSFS
The experiment is described as follows: Kinase competition binding assay, JAK3. The conditions noted are these: Table 1 kinase panel. The method, then:
as §1, §2

Experiment [4] concerns the target T4, PIM-3 (Homo sapiens, UniProt Q86V86).
T4 construct: full-length constructs were used for small, single domain kinases; T7 phage fusion (most assays) or DNA tag for qPCR (HEK-293-made kinases); made in house
Briefly: Kinase competition binding assay, PIM-3. The conditions noted are these: Table 1 kinase panel. The protocol: as §1, §2

Experiment [5] deals with T5, SIRT-2 (Homo sapiens, UniProt Q8IXJ6).
T5 sequence (Q8IXJ6 1-389): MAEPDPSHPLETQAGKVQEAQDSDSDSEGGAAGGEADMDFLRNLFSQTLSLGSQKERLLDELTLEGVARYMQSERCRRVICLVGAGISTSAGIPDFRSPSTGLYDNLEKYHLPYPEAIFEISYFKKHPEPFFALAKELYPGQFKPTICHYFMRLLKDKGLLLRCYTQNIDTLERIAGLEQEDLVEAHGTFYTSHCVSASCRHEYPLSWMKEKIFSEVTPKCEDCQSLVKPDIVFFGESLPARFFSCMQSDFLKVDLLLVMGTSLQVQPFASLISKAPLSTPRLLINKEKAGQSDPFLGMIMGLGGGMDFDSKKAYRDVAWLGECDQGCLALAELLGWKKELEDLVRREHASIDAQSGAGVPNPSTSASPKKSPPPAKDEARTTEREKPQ
Briefly: Inhibition of sirtuins, SIRT-2. The experiment is classed as biochemical. To be noted: Table 3 SIRT. From the text:
Inhibition of Sirtuins, Matrix Metalloproteinase, Bromodomains was Also Confirmed Using Standard Protocols and the Results are Present in Table 2.

Experiment [6] has as its target T6, PDGFRa (Homo sapiens, UniProt P16234).
T6 construct: catalytic domain constructs for large multi-domain kinases; T7 phage fusion (most assays) or DNA tag for qPCR (HEK-293-made kinases); made in house
The experiment is described as follows: Kinase competition binding assay, PDGFRa. The conditions noted are these: Table 1 kinase panel. The method, then:
Cannabis flavonoids and their analogs were subjected to kinase inhibition assay. The compounds were first screened at a single concentration of 10 μM in the primary assay. […]. To determine the kd or IC50 values, competition binding assays were established, authenticated and executed as described previously. Fabian et al., “A Small Molecule-Kinase Interaction Map For Clinical Kinase Inhibitors.”, Nat Biotechnol, 23(3):329-36, Epub (2005). See also, Karaman et al., “A Quantitative Analysis Of Kinase Inhibitor Selectivity”, Nat. Biotechnol. […] For most assays, kinases were fused to T7 phage strains (Fabian, supra) and for the other assays, kinases were produced in HEK-293 cells after which they were tagged with DNA for quantitative PCR detection. In general, full-length constructs were used for small, single domain kinases, and catalytic domain constructs for large multi-domain kinases. The binding assays utilized streptavidin-coated magnetic beads treated with biotinylated small molecule ligands for 30 minutes at room temperature which generated affinity resins for the kinase assays. The liganded beads were blocked with excess biotin and washed with blocking buffer (SeaBlock (Pierce), 1% BSA, 0.05% Tween 20, 1 mM DTT) to remove unbound ligand and to reduce non-specific phage binding. […] Test compounds were prepared as 40× stocks in 100% DMSO and diluted directly into the assay (Final DMSO concentration=2.5%). All reactions were performed in polypropylene 384-well plates in a final volume of 0.04 ml. […] The beads were then re-suspended in elution buffer (1×PBS, 0.05% Tween 20, 0.5 μM non-biotinylated affinity ligand) and incubated at room temperature with shaking for 30 minutes. The kinase concentration in the eluates was measured by quantitative PCR. An illustration of the kinase interaction process is presented below. Kd/IC50 values were determined using a standard dose response curve using the hill equation. Curves were fitted using a non-linear least square fit with the Levenberg-Marquardt algorithm. […]

T1 sequence (P10721 26-976 Y823D): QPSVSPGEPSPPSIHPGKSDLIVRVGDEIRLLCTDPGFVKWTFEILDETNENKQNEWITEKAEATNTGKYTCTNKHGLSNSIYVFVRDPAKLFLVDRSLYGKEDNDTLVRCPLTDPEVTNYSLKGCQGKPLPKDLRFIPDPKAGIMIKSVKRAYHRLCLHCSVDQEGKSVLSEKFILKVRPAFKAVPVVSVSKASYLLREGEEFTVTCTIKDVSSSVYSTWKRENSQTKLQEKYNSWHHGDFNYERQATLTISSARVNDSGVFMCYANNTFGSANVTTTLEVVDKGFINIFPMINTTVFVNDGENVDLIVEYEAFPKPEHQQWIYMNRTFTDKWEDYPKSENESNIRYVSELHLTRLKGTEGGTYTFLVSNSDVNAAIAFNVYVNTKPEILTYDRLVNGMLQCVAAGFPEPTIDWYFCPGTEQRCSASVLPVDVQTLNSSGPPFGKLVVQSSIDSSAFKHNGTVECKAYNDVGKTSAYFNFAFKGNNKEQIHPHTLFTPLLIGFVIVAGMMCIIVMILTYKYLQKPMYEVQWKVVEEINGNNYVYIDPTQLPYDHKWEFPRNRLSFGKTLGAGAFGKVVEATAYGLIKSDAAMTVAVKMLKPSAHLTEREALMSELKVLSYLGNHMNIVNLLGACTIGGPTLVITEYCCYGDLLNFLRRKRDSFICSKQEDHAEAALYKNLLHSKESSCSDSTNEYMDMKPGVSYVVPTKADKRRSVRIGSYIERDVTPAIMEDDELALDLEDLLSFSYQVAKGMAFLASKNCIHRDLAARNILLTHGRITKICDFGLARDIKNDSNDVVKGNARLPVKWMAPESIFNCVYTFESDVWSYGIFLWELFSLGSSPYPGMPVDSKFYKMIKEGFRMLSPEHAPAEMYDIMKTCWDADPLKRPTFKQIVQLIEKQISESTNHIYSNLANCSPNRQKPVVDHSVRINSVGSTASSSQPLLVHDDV
T6 sequence (P16234 593-954 limits assumed): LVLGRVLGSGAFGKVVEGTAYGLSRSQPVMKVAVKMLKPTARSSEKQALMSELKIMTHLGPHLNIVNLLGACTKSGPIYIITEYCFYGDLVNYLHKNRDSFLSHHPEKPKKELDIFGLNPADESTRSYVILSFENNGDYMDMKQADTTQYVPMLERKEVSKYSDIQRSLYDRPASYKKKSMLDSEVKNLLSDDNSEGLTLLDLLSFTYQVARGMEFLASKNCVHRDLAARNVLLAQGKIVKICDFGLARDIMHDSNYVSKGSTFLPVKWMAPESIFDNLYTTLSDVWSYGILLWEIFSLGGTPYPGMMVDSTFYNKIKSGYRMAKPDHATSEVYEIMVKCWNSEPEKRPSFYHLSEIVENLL

Take `COc1cc(-c2cc(=O)c3c(O)c(C/C=C(\C)CCC=C(C)C)c(O)cc3o2)ccc1O` [FBL-03A]: the half-inhibitory concentration (IC50) in experiment [1] is over 20000 nM; in experiment [2], 1500 nM; in experiment [3], over 20000 nM; in experiment [4] it was over 20000 nM; in experiment [5] it was 2.57 µM.

For `COc1ccc(-c2cc(=O)c3c(O)c(C/C=C(\C)CCC=C(C)C)c(O)cc3o2)cc1OC` [FBL-03D], the IC50 in experiment [1] was over 30000 nM; in experiment [2], over 30000 nM; in experiment [3], over 30000 nM; in experiment [6], over 30000 nM; in experiment [4], over 30000 nM; in experiment [5], 2.38 µM.

Consider `COc1cc(-c2cc(=O)c3c(O)c(CC=C(C)C)c(O)cc3o2)ccc1O` [FBL-03B], for which the IC50 in experiment [1] was 244 nM; in experiment [2], 199 nM; in experiment [3], over 1000 nM; in experiment [6], 982 nM; in experiment [4], 173 nM; in experiment [5] it was 10.8 µM.

In the case of `COc1cc(-c2cc(=O)c3c(O)cc(O)c(C/C=C(\C)CCC=C(C)C)c3o2)ccc1O` [FBL-03C], the IC50 in experiment [1] is over 20000 nM; in experiment [2], 1200 nM; in experiment [3], 780 nM; in experiment [4], over 1000 nM; in experiment [5], 14 µM.

On to `COc1cc(-c2cc(=O)c3c(O)cc(O)c(CC=C(C)C)c3o2)ccc1O` [FBL-03G], for which the IC50 in experiment [1] is 84 nM; in experiment [2], 4 nM; in experiment [3], over 20000 nM; in experiment [6] it was 5920 nM; in experiment [4], 35 nM; in experiment [5] it was 24.1 µM.
